In PubChem BioAssay (NCI):
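In this assay, cells in 96-well plates receive the compound at five concentrations for 48 hours. Endpoints are linearly interpolated between the surrounding concentrations. GI50: concentration for 50% inhibition of growth. TGI: concentration producing complete growth inhibition.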

Key:
Experiment in all cases: inhibition of tumour cell growth, NCI panel, 48 h
786-0 renal = system: 786-0 renal
A498 renal = system: A498 renal
A549 NSCLC = system: A549 NSCLC
ACHN renal = system: ACHN renal
BT-549 breast = system: BT-549 breast
CAKI-1 renal = system: CAKI-1 renal
CCRF-CEM leukemia = system: CCRF-CEM leukemia
COLO 205 colon = system: COLO 205 colon
DU-145 prostate = system: DU-145 prostate
EKVX NSCLC = system: EKVX NSCLC
HCC-2998 colon = system: HCC-2998 colon
HCT-116 colon = system: HCT-116 colon
HCT-15 colon = system: HCT-15 colon
HL-60(TB) leukemia = system: HL-60(TB) leukemia
HOP-62 NSCLC = system: HOP-62 NSCLC
HOP-92 NSCLC = system: HOP-92 NSCLC
HS 578T breast = system: HS 578T breast
HT29 colon = system: HT29 colon
IGROV1 ovarian = system: IGROV1 ovarian
K-562 leukemia = system: K-562 leukemia
KM12 colon = system: KM12 colon
LOX IMVI melanoma = system: LOX IMVI melanoma
M14 melanoma = system: M14 melanoma
MALME-3M melanoma = system: MALME-3M melanoma
MCF7 breast = system: MCF7 breast
MDA-MB-231 breast = system: MDA-MB-231 breast
MDA-MB-435 = system: MDA-MB-435
MOLT-4 leukemia = system: MOLT-4 leukemia
NCI-H226 lung = system: NCI-H226 lung
NCI-H23 lung = system: NCI-H23 lung
NCI-H460 lung = system: NCI-H460 lung
NCI-H522 lung = system: NCI-H522 lung
NCI/ADR-RES ovarian = system: NCI/ADR-RES ovarian
OVCAR-3 ovarian = system: OVCAR-3 ovarian
OVCAR-4 ovarian = system: OVCAR-4 ovarian
OVCAR-5 ovarian = system: OVCAR-5 ovarian
OVCAR-8 ovarian = system: OVCAR-8 ovarian
PC-3 prostate = system: PC-3 prostate
RPMI-8226 leukemia = system: RPMI-8226 leukemia
RXF 393 renal = system: RXF 393 renal
SF-268 CNS = system: SF-268 CNS
SF-295 CNS = system: SF-295 CNS
SF-539 CNS = system: SF-539 CNS
SK-MEL-2 melanoma = system: SK-MEL-2 melanoma
SK-MEL-28 melanoma = system: SK-MEL-28 melanoma
SK-MEL-5 melanoma = system: SK-MEL-5 melanoma
SK-OV-3 ovarian = system: SK-OV-3 ovarian
SN12C renal = system: SN12C renal
SNB-19 CNS = system: SNB-19 CNS
SNB-75 CNS = system: SNB-75 CNS
SR leukemia = system: SR leukemia
SW-620 colon = system: SW-620 colon
T-47D breast = system: T-47D breast
TK-10 renal = system: TK-10 renal
U251 CNS = system: U251 CNS
UACC-62 melanoma = system: UACC-62 melanoma
UO-31 renal = system: UO-31 renal

Q: Which results are given for Cc1cnc(NC2CCOCC2)nc1-n1cnc(C(=O)N[C@H](CN)c2cc(F)cc(Cl)c2)c1?
A: GI50 (786-0 renal): 1.49 µM; TGI (786-0 renal): 20 µM; GI50 (A498 renal): 0.0508 µM; TGI (A498 renal): 0.462 µM; GI50 (A549 NSCLC): 0.216 µM; TGI (A549 NSCLC): 30.5 µM; GI50 (ACHN renal): 1.64 µM; TGI (ACHN renal): 28 µM; GI50 (BT-549 breast): 5.02 µM; TGI (BT-549 breast): 17.2 µM; GI50 (CAKI-1 renal): 0.237 µM; TGI (CAKI-1 renal): 5.34 µM; GI50 (CCRF-CEM leukemia): 2.4 µM; TGI (CCRF-CEM leukemia): 24.5 µM; GI50 (COLO 205 colon): < 0.01 µM; TGI (COLO 205 colon): 14.2 µM; GI50 (DU-145 prostate): 2.34 µM; TGI (DU-145 prostate): 82.8 µM; GI50 (EKVX NSCLC): 0.427 µM; TGI (EKVX NSCLC): 20.2 µM; GI50 (HCC-2998 colon): 0.018 µM; TGI (HCC-2998 colon): 11.6 µM; GI50 (HCT-116 colon): 0.0177 µM; TGI (HCT-116 colon): 12.4 µM; GI50 (HCT-15 colon): 3.06 µM; TGI (HCT-15 colon): 34.3 µM; GI50 (HL-60(TB) leukemia): 0.0196 µM; TGI (HL-60(TB) leukemia): 1.83 µM; GI50 (HOP-62 NSCLC): 0.154 µM; TGI (HOP-62 NSCLC): 20.9 µM; GI50 (HOP-92 NSCLC): 0.023 µM; TGI (HOP-92 NSCLC): 2.12 µM; GI50 (HS 578T breast): 0.871 µM; TGI (HS 578T breast): 15.8 µM; GI50 (HT29 colon): 0.0128 µM; TGI (HT29 colon): > 35.4 µM; GI50 (IGROV1 ovarian): 0.0702 µM; TGI (IGROV1 ovarian): 13 µM; GI50 (K-562 leukemia): 0.783 µM; TGI (K-562 leukemia): 14.5 µM; GI50 (KM12 colon): 0.0814 µM; TGI (KM12 colon): 30.1 µM; GI50 (LOX IMVI melanoma): 0.0441 µM; TGI (LOX IMVI melanoma): 5.88 µM; GI50 (M14 melanoma): 0.0193 µM; TGI (M14 melanoma): 2.38 µM; GI50 (MALME-3M melanoma): < 0.01 µM; TGI (MALME-3M melanoma): 0.0157 µM; GI50 (MCF7 breast): 1.58 µM; TGI (MCF7 breast): 15.4 µM; GI50 (MDA-MB-231 breast): 0.0999 µM; TGI (MDA-MB-231 breast): > 30.6 µM; GI50 (MDA-MB-435): 0.0638 µM; TGI (MDA-MB-435): 16.4 µM; GI50 (MOLT-4 leukemia): 1.59 µM; TGI (MOLT-4 leukemia): 9.79 µM; GI50 (NCI-H226 lung): 1.36 µM; TGI (NCI-H226 lung): 10.9 µM; GI50 (NCI-H23 lung): 0.0201 µM; TGI (NCI-H23 lung): 16.5 µM; GI50 (NCI-H460 lung): 1.05 µM; TGI (NCI-H460 lung): 17.9 µM; GI50 (NCI-H522 lung): 8.23 µM; TGI (NCI-H522 lung): 30.5 µM; GI50 (NCI/ADR-RES ovarian): 19.8 µM; TGI (NCI/ADR-RES ovarian): > 91.9 µM; GI50 (OVCAR-3 ovarian): 1.94 µM; TGI (OVCAR-3 ovarian): 22.2 µM; GI50 (OVCAR-4 ovarian): 0.506 µM; TGI (OVCAR-4 ovarian): 53.5 µM; GI50 (OVCAR-5 ovarian): 0.0269 µM; TGI (OVCAR-5 ovarian): > 82.8 µM; GI50 (OVCAR-8 ovarian): 3.48 µM; TGI (OVCAR-8 ovarian): 42.6 µM; GI50 (PC-3 prostate): 4.36 µM; TGI (PC-3 prostate): 38.5 µM; GI50 (RPMI-8226 leukemia): 7.45 µM; TGI (RPMI-8226 leukemia): 30.4 µM; GI50 (RXF 393 renal): 0.101 µM; TGI (RXF 393 renal): 2.42 µM; GI50 (SF-268 CNS): 1.86 µM; TGI (SF-268 CNS): 23.2 µM; GI50 (SF-295 CNS): 2.8 µM; TGI (SF-295 CNS): 17.3 µM; GI50 (SF-539 CNS): 2.93 µM; TGI (SF-539 CNS): 17.4 µM; GI50 (SK-MEL-2 melanoma): 0.0186 µM; TGI (SK-MEL-2 melanoma): 0.531 µM; GI50 (SK-MEL-28 melanoma): 0.0203 µM; TGI (SK-MEL-28 melanoma): 13.5 µM; GI50 (SK-MEL-5 melanoma): 0.388 µM; TGI (SK-MEL-5 melanoma): 12.9 µM; GI50 (SK-OV-3 ovarian): 0.523 µM; TGI (SK-OV-3 ovarian): 8.17 µM; GI50 (SN12C renal): 2.27 µM; TGI (SN12C renal): > 52.1 µM; GI50 (SNB-19 CNS): 13.9 µM; TGI (SNB-19 CNS): > 57.8 µM; GI50 (SNB-75 CNS): 0.103 µM; TGI (SNB-75 CNS): 8.84 µM; GI50 (SR leukemia): 1.14 µM; TGI (SR leukemia): 16.5 µM; GI50 (SW-620 colon): 0.0383 µM; TGI (SW-620 colon): 14.3 µM; GI50 (T-47D breast): 13.6 µM; TGI (T-47D breast): 46.6 µM; GI50 (TK-10 renal): 0.113 µM; TGI (TK-10 renal): 23 µM; GI50 (U251 CNS): 1.54 µM; TGI (U251 CNS): 22.9 µM; GI50 (UACC-62 melanoma): 0.0102 µM; TGI (UACC-62 melanoma): 5.57 µM; GI50 (UO-31 renal): 0.903 µM; TGI (UO-31 renal): 5.43 µM
